Measurements as given in patent US7666850B2, “Drug screens based on the newly found role of dystroglycan proteolysis and restoration of dystroglycan function thereof” (The Regents of the University of California, priority 1999, dated 2010).
“Also recorded” adds a separate entry of the source.

Assays:
[1] = test system: α-dystroglycan shedding, SCg6 mammary carcinoma cells; assay: Dystroglycan proteolysis assay: immunoblot detection of α-dystroglycan shed from the cell surface into culture medium; assay type: cell-based
Experimental: To ask if shedding was induced by the proteolysis, we treated the cells with a general matrix metaloproteinase (MW) inhibitor, GM6001, to see if α-dystroglycan shedding was inhibited.
Cleavage of a-dystroglycan was detected using cultured cells that cleave and shed dystroglycan from the cell surface. Dystroglycan cleavage was assayed for by immunoblotting to detect the presence of dystroglycan fragments in the medium of cultured cells. Mammary carcinoma cell lines SCg6 or TCL1 were cultured in 10 milliliters (ml) DMEM/F12 medium supplemented with 2% fetal calf serum, 5 μg/ml insulin (Sigma Chemical Co., St. Louis, Mo.), and 50 μg/ml Gentamycin (UCSF Cell Culture Facility). The cells were allowed to grow to 80% confluence in 10 centimeter (cm) plastic tissue culture dishes. The cells were rinsed two times with phosphate-buffered saline (PBS) and the medium was then changed to 10 mls DMEM/F12 medium supplemented with insulin, and Gentamycin, but without added serum. The cells were incubated in this serum-free medium for 48 hrs, then this conditioned medium was harvested and filtered through 0.4 µm filters to remove cells or cell debris. The harvested medium was concentrated from 10 ml to approximately 1.0 ml using a CENTRIPREP-30 concentrator (Amicon, Beverly, Mass.). The concentrated supernatant was added to 1/10th volume of 10× sample buffer (50% glycerol, 100 mM acetic acid, 10% SDS (w/v), 12.5% (v/v) β-mercaptoethanol, bromophenol blue) and heated at 70 degrees Celsius for 15 minutes prior to loading on SDS-polyacrylamide (SDS-PAGE) gels, and subjected to immunoblot analysis. Assays of dystroglycan cleavage and shedding in the presence of the metaloproteinase inhibitor GM6001 (AMS Scientific, Pleasant Hills, Calif.) were performed in the same manner, with varying concentrations of GM6001, or the control C1004 (AMS Scientific), diluted into the serum-free culture medium at the beginning of the 48 hour incubation. To compare treatments, equivalent volumes of conditioned medium from each treated cell population were loaded onto the gel to determine the relative quantities of dystroglycan shed into the medium.
After separation on an 8% SDS-PAGE gels, the proteins were electrophoretically transferred to Immobilon-P membranes (Millipore Corp., Bedford, Mass.) using methanol transfer buffer (20 mM Tris pH 8.3, 150 mM glycine, 0.5% SDS, 20% methanol). Following the transfer, the membranes were blocked for two hours in low salt TBST buffer (20 mM Tris-HCI, pH 8.0, 100 mM NaCl, 1.0% Tween-20 detergent) plus 5% non-fat dried milk (Lucerne). After blocking, the membranes were incubated for 45 minutes with the IIH6 monoclonal antibody (primary antibody against α-dystroglycan, obtained from Dr. Kevin Campbell, University of Iowa) diluted in low salt TBST plus 5% dried milk. The primary antibody was diluted 1:20 from a concentrated (8×) stock of hybridoma supernatant. After incubation with the primary antibody, the membranes were washed with low-salt TBST and incubated 45 minutes with an horse radish peroxidase (HRP) conjugated secondary antibody (anti-IgM Product # A 8786 from Sigma).

HMT-3522-T4 (T4) cells = assay: 3-dimensional basement membrane (3D-BM) assay, HMT-3522-T4 cells; assay type: cell-based
Text: Dystroglycan function reduces the growth potential and induces polarity in normal mammary epithelial cells exposed to basement membrane proteins. […] Because dystroglycan function is lost in part by proteolytic shedding, inhibition of dystroglycan shedding can restore or enhance dystroglycan function. Therefore, restoration of dystroglycan function can be used as an assay for inhibitors of the metaloproteinase(s) cleaving and shedding α-dystroglycan. […] The cells were counted and 100,000 cells were resuspended in 0.3-0.5 mls of growth factor-reduced Matrigel (Collaborative Research). This mixture was placed into a 1.5 cm diameter cell culture well, and incubated at 37 degrees Celsius for 30 minutes to induce gelling of the Matrigel. Subsequently, the gelled cell-BM protein mixture was overlayed with growth medium with or without the addition of protease inhibitors or control substances. The cells were cultured at 37 degrees Celsius in a cell culture incubator at 5% carbon dioxide. The growth medium and additives were changed every two days.
The assay was allowed to proceed from 6 to 10 days. […] Measures of polarity and reduced growth potential can be easily optimized by methods existing in the art.

MDA-MD-231 cells = assay: 3-dimensional basement membrane (3D-BM) assay, MDA-MD-231 cells; assay type: cell-based
Text: Dystroglycan function reduces the growth potential and induces polarity in normal mammary epithelial cells exposed to basement membrane proteins. […] Because dystroglycan function is lost in part by proteolytic shedding, inhibition of dystroglycan shedding can restore or enhance dystroglycan function. Therefore, restoration of dystroglycan function can be used as an assay for inhibitors of the metaloproteinase(s) cleaving and shedding α-dystroglycan. Carcinoma cell lines, including the HMT-3522-T4 cells and MDA-MD-231 cells, were cultured within the 3-dimensional basement membrane (3-D BM) assay. To accomplish this the cells were trypsinized from routine cell culture, washed once with DMEM/F12 medium, treated with soybean trypsin inhibitor, washed again with DMEM/F12 medium and resuspended in growth medium [DMEM/F12, supplemented with insulin 250 ng/ml (Boehringer Mannheim, Indianapolis, Ind.), 10 μg/ml transferrin (Sigma), 2.6 ng/ml sodium selenite (Collaborative Research), 1.4×10^−6 M hydrocortisone (Collaborative Research), 1×10^−10 M β-estradiol (Sigma),5 μg/ml prolactin (Sigma)]. The cells were counted and 100,000 cells were resuspended in 0.3-0.5 mls of growth factor-reduced Matrigel (Collaborative Research). This mixture was placed into a 1.5 cm diameter cell culture well, and incubated at 37 degrees Celsius for 30 minutes to induce gelling of the Matrigel. Subsequently, the gelled cell-BM protein mixture was overlayed with growth medium with or without the addition of protease inhibitors or control substances. The cells were cultured at 37 degrees Celsius in a cell culture incubator at 5% carbon dioxide. The growth medium and additives were changed every two days.
The assay was allowed to proceed from 6 to 10 days. Over this time, the cells grew from single cells within the gel to form multicellular aggregates with variable characteristics, from polarized and growth arrested (normal phenotype), to disorganized and growing (tumorigenic phenotype), to invasive. […]

MMPs = conditions: MPs other than some ADAMs; cited from earlier work

Molecule | shedding of α-dystroglycan (proteolysed form) into the culture supernatant ([1]; 40 μM, FIG. 1B) | shedding of α-dystroglycan in the supernatant across a concentration series ([1]; five different concentrations, FIG. 1C) | Ki ([1]; titration of GM6001, FIG. 1C, 48 h serum-free medium, read-out: Ki (pKi) for inhibition of α-dystroglycan shedding (converted)) [µM] | concentration giving nearly complete inhibition of α-dystroglycan shedding ([1]; titration, FIG. 1C) | effect on tumor cell growth characteristics in the 3D-BM assay (HMT-3522-T4 (T4) cells; 2 μM, FIG. 3B) | tumorigenic phenotype in the 3D-BM assay (HMT-3522-T4 (T4) cells; 40 μM, FIGS. 3C, 3D) | cell growth after removal of the inhibitor (HMT-3522-T4 (T4) cells; removal for 7 days following a ten-day incubation with the inhibitor) | effect on tumor cell growth characteristics in the 3D-BM assay (MDA-MD-231 cells; 2 μM, FIG. 3F) | growth and invasion of MDA-MD-231 cells in the 3D-BM assay (MDA-MD-231 cells; 40 μM, FIGS. 3G, 3H) | concentration required to reduce growth (and invasion) of MDA-MD-231 cells (MDA-MD-231 cells; 6 to 10 days in Matrigel) | GM6001 concentrations that generally inhibit other MP's (MMPs) | reversion of the T4 tumor cell line in the 3D-BM assay (HMT-3522-T4 (T4) cells; 10 μM)
CNC(=O)[C@H](Cc1c[nH]c2ccccc12)NC(=O)[C@@H](CC(=O)NO)CC(C)C [GM6001, N-[2(R)-2(hydroxamidocarbonylmethyl)-4-methylpentanoyl]-L-tryptophane methylamide] | blocked; also recorded: no longer detected | differentially blocked | ~10 | over 25 μM | No effect | Complete “reversion” of the tumor phenotype; also recorded: caused growth arrest, polarization and reversion to a non-tumorigenic phenotype | did not permit a re-initiation of cell growth | No effect | potently inhibited the growth and invasion | over 20 μM | below 30 μM | –
TAPI | – | – | – | – | – | – | – | – | – | – | – | revert
